From patent publication US9463174B2, “Pharmaceutical composition for the treatment of type-1 diabetes” (priority 2008, dated 2016)
Entries after “also recorded” stand apart in the source; their conditions may differ.

Legend:
NOD mice = experiment: Prevention of diabetes in non-obese diabetic (NOD) mice, GABA daily injections from age of 5 week; assay type: in vivo
Method: To examine the role of GABA in the development of diabetes in NOD mice, GABA daily injections were started at age of 5 week and PBS injections as control. Islet immunohistochemistry was performed at their age of 13 wks before the onset of obvious diabetic hyperglucemia. […] It is noted that beyond this age, the blood glucose levels of saline-treated NOD mice were out of the scale of the measurement (red arrows FIG. 6F). These non-treated NOD mice also developed impaired glucose tolerance (FIG. 6F, 6G), associated with reduced circulating C-peptide (FIG. 6H) and elevated circulating glucagon levels (FIG. 6I).
(§1) The techniques used for the in vivo and in vitro studies in this embodiment of the disclosure are also described. CD1 mice (Charles River Laboratories, St Constant, Canada), NOD mice and transgenic TCR NOD mice (Jackson Laboratory, USA) were housed under a controlled temperature and a 12-h light/12-h dark cycle in the St. Michael's Hospital Animal facility with free access to food (normal rodent chow) and water, except where noted. All procedures were conducted according to protocols and guidelines approved by the Canadian Council of Animal Care and the St. Michael's Hospital Animal Care committee. Mice were treated with GABA by daily intraperitoneal (i.p.) injection of 20·g GABA per mouse to reach ˜200 μM circulation concentration and PBS as control. The daily treatment is continuously conducted during 60-day experimental period. One wk after the GABA and PBS treatment, diabetes was induced in both groups by i.p.-injection of low-dose streptozotocin (STZ, Sigma Chemical Co., St. Louis, Mo. 40 mg/kg body weight) for 5 consecutive days. The development of hyperglycemia was monitored by measuring blood glucose from the tail vein every third day following STZ injections using an Ascensia ELITE® XL glucose meter. For some studies, overtly diabetic mice induced by STZ and without GABA treatment were divided into two groups: one group started receiving daily i.p. injection of 20·g GABA whereas other group received only PBS. The treatment was continued for 75 days. The handling of the NOD mice were similar to those CD1 mice except the STZ injection. The NOD mice have a susceptibility to spontaneous development of autoimmune T1D. The TCR transgenic 8.3-NOD mice have a markedly accelerated disease (J. Vergdaguer et al, 1997 J Exp Med. 186(10):1663-76).
Groups of mice were subject to a glucose tolerance test (IPGTT) before treatment (day 0), one, three, and five weeks after administration and the day prior termination. For IPGTT, mice were fasted overnight for 15 h, and were given 1.5 g glucose/kg body weight via i.p.-injection. Blood was drawn from the tail vein and blood glucose was measured at 0, 10, 20, 30, 60, 90, and 120 min after glucose administration.
Blood samples (200 μL) were collected from the saphenous vein at time as indicated and at the termination of experiments via cardiac puncture (1 mL) for measurement of insulin, glucagon, and cytokine profiles. Serum was collected by centrifugation and stored at −80° C. until use. Insulin and glucagon concentration in serum samples were determined using insulin ELISA kit (Crystal Chem., Chicago, Ill., USA) and glucagon RIA kit (Linco Research, St. Louis, Miss., USA). Circulating GLP-1 levels were determined using GLP-1 RIA kit (Linco Research, St. Louis, Miss., USA). Cytokine concentration in the serum samples was determined using kit Multiplex Bead-based Cytokine assay (BioRed, Canada).
Following dewaxing, […] as described previously (Wang Q, Brubaker P L 2002 Diabetologia 45:1263-1273), endogenous peroxidase activity was quenched by incubating sections in 0.3% H2O2 in water for 30 min and antigen retrieval was performed by heating slides in 10 mM sodium citrate buffer, pH 6.0, at ˜70° C. for 30 min. […]

[1] = system: established diabetic hyperglycemic NOD mice; experiment: Treatment of established diabetes in NOD mice (GABA alone or GABA plus Ex4); assay type: in vivo
Method: as §1
Mice were housed in metabolic cages prior to initiation of GABA and PBS treatment and before termination of experiments. Food intake, water consumption and urine output were measured. To determine the fat distribution, three intra-abdominal fat pads retroperitoneal, mesenteric and epididymal were dissected and weighed. Subcutaneous fat was also analyzed.
All data are presented as mean±SEM. Statistic analysis was performed using Student's t-test or analysis of variance (ANOVA) with ‘n−1’ post hoc custom hypotheses tests, as appropriate, with the SAS software (Statistical Analysis Systems, Cary, N.C.) or the GraphPad Prism 3.0 program (GraphPad Software Inc., San Diego, Calif.). The incidence of diabetes was plotted using the Kaplan-Meier method and statistical comparisons made with the log-rank test. The significance of differences in insulitis scores was determined with the Chi-squared test. The differences between groups in the in vitro proliferation and cytokine release assays were determined by analysis of variance (ANOVA). Significance was assumed at p<0.05.

INS-1 cells = experiment: Cell proliferation assay by 3H-thymidine incorporation; assay type: cell-based
Method: INS-1 cells were grown to 80-85% confluence in 12-well plates, serum-starved for 24 h and then treated with GABA at various concentrations in the presence of 3 mmol/l glucose. Some cells were also pre-incubated with GABA receptor antagonist for 20 h prior before the treatment. DNA synthesis was measured by incubating cells with 37 kBq/ml 3H-methylthymidine (specific activity: 3000 GBq/mmol; Amersham Pharmacia Biotech) for 4 h. Cells were then washed twice in ice-cold PBS and incubated for 30 min in 1 ml of 5% trichloroacetic acid on ice to precipitate the DNA. The liquid layer was removed by aspiration and 250 μl of 0.1 mol/l sodium hydroxide was added to the cells for 30 min at room temperature. During this time the container was gently shaken. The solubilised material was then transferred to 5 ml of scintillant, and radioactive counts were determined by liquid scintillation counting.

[2] = age of 13 wks, GABA-treated NOD mice

## NCCCC(=O)O [GABA, gamma-aminobutyric acid]
NOD mice; GABA-treated NOD mice
  beta-cell apoptosis (anti-caspase-3 islet histochemistry): reduced
  circulating C-peptide: close to those measured at their earlier age; also recorded: significantly increased circulating C-peptide
  circulating glucagon levels: close to those measured at their earlier age; also recorded: reduced glucagon levels
  glucose tolerance: close to normal glucose tolerance
  ratio of insulin to glucagon: significantly elevated the ratio of insulin to glucagon
NOD mice; NOD mice
  onset of diabetes / development of severe diabetic hyperglycemia: significantly prevented development of severe diabetic hyperglycemia; also recorded: prevents onset of diabetes
NOD mice; age of 13 wks
  severe insulitis: no severe insulitis was seen
NOD mice; [2]
  islets areas occupied by lymphocytes in islets with relatively severe insulitis: 20-30%
  islets with normal morphology without lymphocyte infiltration: > 70%
  islets with relatively severe insulitis: about 15%
NOD mice; at 18 wks of age, vs saline-treated NOD mice
  blood glucose levels: kept lower blood glucose levels
[1]; GABA alone
  time for which lower blood glucose levels were maintained: about two
[1]; GABA vs PBS, after onset of hyperglycemia
  blood glucose levels: significantly reduced blood glucose levels
[1]; GABA-treated group
  sickness: no obvious sickness was developed
[1]; GABA-treated vs PBS
  diabetic symptoms (metabolic studies): significantly lessened
[1]; after onset of diabetic hyperglycemia, combination determined at two weeks after treatment
  reversal of diabetic hyperglycemia / remission: transient effect; also recorded: not able to achieve a full remission; also recorded: not effective in completely reversing diabetic hyperglycemia
[1]; diabetes when blood glucose ≧12 mM, GABA 20·g mouse, Ex4 1 nmol/kg, therapies PBS, GABA alone, GABA plus Ex4
  incidence of diabetes: significantly lower
[1]; established diabetic NOD mice
  feces: reduced
  food intake: reduced
  urine: reduced
  water consumption: reduced
INS-1 cells; GABA 100 mM, time-dependent manner
  3H-thymidine incorporation into INS-1 cells: increased the ^3H-thymidine incorporation
INS-1 cells; various concentrations, 3 mmol/l glucose
  INS-1 cell proliferation (3H-thymidine incorporation): dose-dependently increased INS-1 cell proliferation
